Reference: US20230027075A1, “SULFONAMIDE COMPOUNDS TARGETING CD73 AND ADENOSINE RECEPTORS” (Aurigene Discovery Technologies Limited, priority 2019, published 2023)
One block for each compound: values may come before it.

Tests used:
A2aR = target: T1, A2aR (Homo sapiens, UniProt P29274); experiment: A2aR biochemical assay (TR-FRET binding, Tag-lite A2aR labelled cells, fluorescent antagonist); details: 10 nM fluorescent A2aR antagonist; for IC50: four-parameter curve fit, read-out: Potency (IC50 values) of selected compounds in A2aR, group; for inhibition at 20 µM: read-out: % inhibition at 20 μM (Percent inhibition data in A2aR)
T1 construct: expressed in transfected cells
T1 sequence (P29274 whole entry): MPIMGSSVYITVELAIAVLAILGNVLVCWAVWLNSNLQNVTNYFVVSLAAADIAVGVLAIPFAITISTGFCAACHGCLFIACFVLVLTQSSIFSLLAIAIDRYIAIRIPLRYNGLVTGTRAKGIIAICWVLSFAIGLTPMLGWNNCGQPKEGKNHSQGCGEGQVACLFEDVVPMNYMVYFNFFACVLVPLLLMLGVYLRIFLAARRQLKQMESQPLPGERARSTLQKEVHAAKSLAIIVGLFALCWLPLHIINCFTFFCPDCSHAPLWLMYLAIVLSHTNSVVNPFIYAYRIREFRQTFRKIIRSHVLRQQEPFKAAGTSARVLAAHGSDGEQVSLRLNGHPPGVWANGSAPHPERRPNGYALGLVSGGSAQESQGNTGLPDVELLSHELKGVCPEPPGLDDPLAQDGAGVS
Protocol: The compounds of present invention were assayed for A2aR enzyme binding activity in a TR-FRET based method. Typically, 10 μL of A2aR labelled cells in assay buffer (Tag-lite, 1×) is added to a 384-well plate containing 5 μL of a compound of present invention in final 1% DMSO, serially diluted in 1:5 in a 5-6 point titration. The aforesaid compound and cells are incubated for 30 minutes at room temperature. Next, 5 μL of A2aR antagonist (fluorescent ligand) in assay buffer is added to the plate. The final concentration of A2aR antagonist is 10 nM. Following 30 minutes reaction at room temperature, the plate was read on a plate reader (Ex: 340 nm Em: 615 nm and 665 nm) to measure the binding of test compound to A2aR cells. The results are interpreted as percentage inhibition as presented in Table-2A of binding by the test compound with respect to the DMSO control.

[1] = target: T2, human-CD73 (Trp27-Lys547, His-tag) (Homo sapiens, UniProt P21589); experiment: CD73 biochemical assay (colorimetric, Malachite Green phosphate detection); details: 2 nM CD73, 50 μM AMP; for inhibition at 20 µM: 20 μM compound, read-out: % inhibition at 20 μM (Percent inhibition data in CD73); for IC50: four-parameter curve fit, read-out: Potency (IC50 values) of selected compounds in CD73, group
T2 construct: human-CD73 (Trp27-Lys547, His-tag); His-tag
T2 sequence (P21589 27-547): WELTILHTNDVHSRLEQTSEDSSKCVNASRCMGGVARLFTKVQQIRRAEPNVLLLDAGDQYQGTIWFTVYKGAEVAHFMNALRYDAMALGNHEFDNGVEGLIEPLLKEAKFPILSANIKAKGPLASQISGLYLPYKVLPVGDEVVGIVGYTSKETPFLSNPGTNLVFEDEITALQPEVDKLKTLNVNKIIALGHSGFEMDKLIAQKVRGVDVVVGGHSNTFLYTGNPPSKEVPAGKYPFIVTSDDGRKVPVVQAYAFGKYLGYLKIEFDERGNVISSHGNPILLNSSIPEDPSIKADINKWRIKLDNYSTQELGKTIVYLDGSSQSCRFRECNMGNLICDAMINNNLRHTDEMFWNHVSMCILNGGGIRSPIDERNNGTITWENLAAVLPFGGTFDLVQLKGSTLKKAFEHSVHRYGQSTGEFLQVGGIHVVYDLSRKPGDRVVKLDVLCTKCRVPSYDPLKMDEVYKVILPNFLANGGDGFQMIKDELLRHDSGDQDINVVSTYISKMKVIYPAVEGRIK
Protocol: A colorimetric-based method was used for assaying compounds of the invention for CD73 enzyme inhibitory activity. Human CD73 catalyzes the conversion of AMP to adenosine with the release of orthophosphate. A Malachite Green Phosphate Detection kit is used to measure the formation of orthophosphate product. […] A compound of the present invention and enzyme are incubated for 30 minutes at room temperature. Next, 20 μL of AMP in assay buffer is added to the plate. The final concentration of CD73 and AMP are 2 nM and 50 μM respectively. Following 30 minutes reaction at room temperature, 20 μL of Malachite reagent is added to all the reaction wells. The formation of green complex formed between Malachite Green, molybdate and free orthophosphate is measured on a plate reader (620 nm).

[2] = 20 μM compound, vs DMSO control

SMILES: NC(=O)c1cc(S(=O)(=O)Nc2ccc(CCCNc3nc(N)n4nc(-c5ccco5)nc4n3)cc2)cc(Cl)c1O [Example A11, 5-(N-(4-(3-((7-amino-2-(furan-2-yl)-[1,2,4]triazolo[1,5-a][1,3,5]triazin-5-yl)amino)propyl)phenyl)sulfamoyl)-3-chloro-2-hydroxybenzamide]
- % inhibition at 20 μM (Percent inhibition data in A2aR) (A2aR; [2]): 88%
- IC50 (A2aR): < 25 nM
- inhibition at 20 µM [1]: 98%
- IC50 [1]: < 100 nM

SMILES: COC(=O)[C@@H](NC(=O)Oc1c(Cl)cc(S(=O)(=O)Nc2ccc(CCCNc3nc(N)n4nc(-c5ccco5)nc4n3)cc2)cc1C(N)=O)C(C)C [Example A25, Methyl ((4-(N-(4-(3-((7-amino-2-(furan-2-yl)-[1,2,4]triazolo[1,5-a][1,3,5]triazin-5-yl)amino)propyl)phenyl)sulfamoyl)-2-carbamoyl-6-chlorophenoxy)carbonyl)valinate]
- inhibition at 20 µM (A2aR; [2]): 81%
- inhibition at 20 µM [1]: 99%
- IC50 [1]: < 100 nM

SMILES: CC(C)COC(=O)Nc1nc(NCCc2ccc(NS(=O)(=O)c3cc(Cl)c(O)c(C(N)=O)c3)cc2)nc2nc(-c3ccco3)nn12 [Example A9, Isobutyl (5-((4-((3-carbamoyl-5-chloro-4-hydroxyphenyl)sulfonamido)phenethyl)amino)-2-(furan-2-yl)-[1,2,4]triazolo[1,5-a][1,3,5]triazin-7-yl)carbamate]
- inhibition at 20 µM (A2aR; [2]): 82%
- inhibition at 20 µM [1]: 39%

SMILES: NC(=O)c1cc(S(=O)(=O)Nc2ccc(CCCNc3cc(N)n4nc(-c5ccco5)nc4n3)cc2F)cc(Cl)c1O [Example A23, 5-(N-(4-(3-((7-amino-2-(furan-2-yl)-[1,2,4]triazolo[1,5-a]pyrimidin-5-yl)amino)propyl)-2-fluorophenyl)sulfamoyl)-3-chloro-2-hydroxybenzamide]
- inhibition at 20 µM (A2aR; [2]): 78%
- IC50 (A2aR): > 50 nM

SMILES: NC(=O)c1cc(S(=O)(=O)Nc2ccc(CCCOc3cc(N)n4nc(-c5ccco5)nc4n3)cc2)cc(Cl)c1O [Example A21, 5-(N-(4-(3-((7-amino-2-(furan-2-yl)-[1,2,4]triazolo[1,5-a]pyrimidin-5-yl)oxy)propyl)phenyl)sulfamoyl)-3-chloro-2-hydroxybenzamide]
- inhibition at 20 µM (A2aR; [2]): 82%
- inhibition at 20 µM [1]: 98%
- IC50 [1]: 110 to 1000 nM

SMILES: NC(=O)c1cc(S(=O)(=O)Nc2ccc(CCCNc3cc(N)n4nc(-c5ccco5)cc4n3)cc2)cc(Cl)c1O [Example A24]
- inhibition at 20 µM (A2aR; [2]): 79%
- IC50 (A2aR): > 50 nM
- inhibition at 20 µM [1]: 92%
- IC50 [1]: < 100 nM

SMILES: NC(=O)c1cc(S(=O)(=O)Nc2ccc(CCCCNc3nc(N)n4nc(-c5ccco5)nc4n3)cc2)cc(Cl)c1O [Example A18, 5-(N-(4-(4-((7-amino-2-(furan-2-yl)-[1,2,4]triazolo[1,5-a][1,3,5]triazin-5-yl)amino)butyl)phenyl)sulfamoyl)-3-chloro-2-hydroxybenzamide]
- inhibition at 20 µM (A2aR; [2]): 82%
- inhibition at 20 µM [1]: 87%
- IC50 [1]: > 1000 nM

SMILES: NC(=O)c1cc(S(=O)(=O)Nc2ccc(CCCNc3nc(N)n4nc(-c5ccco5)nc4n3)c(O)c2)cc(Cl)c1O [Example A13, 5-(N-(4-(3-((7-amino-2-(furan-2-yl)-[1,2,4]triazolo[1,5-a][1,3,5]triazin-5-yl)amino)propyl)-3-hydroxyphenyl)sulfamoyl)-3-chloro-2-hydroxybenzamide]
- inhibition at 20 µM (A2aR; [2]): 83%
- IC50 (A2aR): 25.1 to 50 nM
- inhibition at 20 µM [1]: 97%
- IC50 [1]: < 100 nM

SMILES: NC(=O)c1cc(S(=O)(=O)Nc2cccc(CNc3nc(N)n4nc(-c5ccco5)nc4n3)c2)cc(Cl)c1O [Example A1, 5-(N-(3-(((7-amino-2-(furan-2-yl)-[1,2,4]triazolo[1,5-a][1,3,5]triazin-5-yl)amino)methyl)phenyl)sulfamoyl)-3-chloro-2-hydroxybenzamide]
- inhibition at 20 µM (A2aR; [2]): 78%
- IC50 (A2aR): < 25 nM
- inhibition at 20 µM [1]: 91%
- IC50 [1]: > 1000 nM

SMILES: NC(=O)c1cc(S(=O)(=O)Nc2ccc(CCCNc3cc(N)n4nc(-c5ccco5)nc4n3)cc2)cc(Cl)c1O [Example A20, 5-(N-(4-(3-((7-amino-2-(furan-2-yl)-[1,2,4]triazolo[1,5-a]pyrimidin-5-yl)amino)propyl)phenyl)sulfamoyl)-3-chloro-2-hydroxybenzamide]
- inhibition at 20 µM (A2aR; [2]): 80%
- IC50 (A2aR): 25.1 to 50 nM
- inhibition at 20 µM [1]: 92%
- IC50 [1]: < 100 nM

SMILES: Nc1nc(NCCc2ccc(NS(=O)(=O)c3cc(F)c(O)c(Cl)c3)cc2)nc2nc(-c3ccco3)nn12 [Example A4, N-(4-(2-((7-amino-2-(furan-2-yl)-[1,2,4]triazolo[1,5-a][1,3,5]triazin-5-yl)amino)ethyl)phenyl)-3-chloro-5-fluoro-4-hydroxybenzenesulfonamide]
- inhibition at 20 µM (A2aR; [2]): 81%
- inhibition at 20 µM [1]: 27%

Continued, values first:

- inhibition at 20 µM (A2aR; [2]): 80%
- inhibition at 20 µM [1]: 35%
SMILES: Nc1nc(NCCc2ccc(NS(=O)(=O)c3cc(Cl)c4c(c3)CC(=O)N4)cc2)nc2nc(-c3ccco3)nn12 [Example B1, N-(4-(2-((7-amino-2-(furan-2-yl)-[1,2,4]triazolo[1,5-a][1,3,5]triazin-5-yl)amino)ethyl)phenyl)-7-chloro-2-oxoindoline-5-sulfonamide]

- inhibition at 20 µM (A2aR; [2]): 79%
- inhibition at 20 µM [1]: 62%
- IC50 [1]: > 1000 nM
SMILES: NC(=O)c1cc(S(=O)(=O)Nc2cccc3c2cnn3CCNc2nc(N)n3nc(-c4ccco4)nc3n2)cc(Cl)c1O [Example D2, 5-(N-(1-(2-((7-amino-2-(furan-2-yl)-[1,2,4]triazolo[1,5-a][1,3,5]triazin-5-yl)amino)ethyl)-1H-indazol-4-yl)sulfamoyl)-3-chloro-2-hydroxybenzamide]

- inhibition at 20 µM (A2aR; [2]): 79%
- inhibition at 20 µM [1]: 39%
SMILES: Nc1nc(NCCc2ccc(NS(=O)(=O)c3cc(Cl)c4c(c3)C(Cl)(Cl)C(=O)N4)cc2)nc2nc(-c3ccco3)nn12 [Example B2, N-(4-(2-((7-amino-2-(furan-2-yl)-[1,2,4]triazolo[1,5-a][1,3,5]triazin-5-yl)amino)ethyl)phenyl)-3,3,7-trichloro-2-oxoindoline-5-sulfonamide]

- inhibition at 20 µM (A2aR; [2]): 88%
- inhibition at 20 µM [1]: 9%
SMILES: Nc1nc(NCCc2ccc(NS(=O)(=O)c3cc(Cl)c4[nH]ccc(=O)c4c3)cc2)nc2nc(-c3ccco3)nn12 [Example B3, N-(4-(2-((7-amino-2-(furan-2-yl)-[1,2,4]triazolo[1,5-a][1,3,5]triazin-5-yl)amino)ethyl)phenyl)-8-chloro-4-oxo-1,4-dihydroquinoline-6-sulfonamide]

- inhibition at 20 µM (A2aR; [2]): 83%
- inhibition at 20 µM [1]: 86%
- IC50 [1]: > 1000 nM
SMILES: NC(=O)c1cc(S(=O)(=O)Nc2ccc(CCNc3nc(N)n4nc(-c5ccco5)nc4n3)nc2)cc(Cl)c1O [Example E1, 5-(N-(6-(2-((7-amino-2-(furan-2-yl)-[1,2,4]triazolo[1,5-a][1,3,5]triazin-5-yl)amino)ethyl)pyridin-3-yl)sulfamoyl)-3-chloro-2-hydroxybenzamide]

- inhibition at 20 µM (A2aR; [2]): 85%
SMILES: NC(=O)c1cc(S(=O)(=O)Nc2cccc(NCCNc3nc(N)n4nc(-c5ccco5)nc4n3)c2)cc(Cl)c1O [Example C2, 5-(N-(3-((2-((7-amino-2-(furan-2-yl)-[1,2,4]triazolo[1,5-a][1,3,5]triazin-5-yl)amino)ethyl)amino)phenyl)sulfamoyl)-3-chloro-2-hydroxybenzamide]
